Tests used:
whole brain membranes = test: Measurement of membrane fluidity (DPH fluorescence anisotropy); design: species or system NMRI mice; details: whole brain membranes from old (22 months) mice; 1, 10, 100 μmol/l and 1 mmol/l; 37° C.; FIGS. 1 and 2
Protocol: The fluidity of whole brain membranes (without cerebellum, medella oblongata and brain stem) from young (3 months) and old (22 months) NMRI mice was determined by fluorescence spectroscopy.
Mouse whole brain membranes were prepared by a modification of the method of Cohnen and Müller, 1993. The deep-frozen hemispheres were, after weighing, transferred into 15 ml of ice-cold buffer IV (Tris-HCl buffer 5 mmol/l; pH 7.4), homogenized using a homogenizer (Potter, glass homogenizer with Teflon pestle, from Braun) at about 1 100 rpm by moving the Teflon pestle up and down about ten times, and transferred into centrifuged tubes (PP30 ml, from Schubert). […]
Membrane fluidity can be measured inter alia by fluorescence spectroscopic methods. In fluorescence polarization spectroscopy, a membrane-bound fluorescent dye is brought to an excited energy state by polarized light of a particular wavelength. […] Membrane fluidity is therefore also indicated as fluorescence anisotropy besides the fluorescence polarization. The anisotropy is in this case calculated from the measured polarization.
The fluorescent dye diphenylhexatriene (DPH) was used for this purpose. […] This process is measured as anisotropy. […]

brain cells = test: Measurement of the production of free radicals (DHR 123 fluorescence); type: cell-based; details: 100 and 500 μmol/l, time-dependent, compared with control, FIGS. 3 and 4
Protocol: Oxidative stress or the production of free radicals was measured using the fluorescence dye dihydrorhodamine (DHR 123). Brain cells were enriched by incubation with DHR 123 in a waterbath at 37° C. for 15 minutes. DHR is then located in particualr in the mitochondria and fluoresces after oxidation by free radicals. Fluorescence was measured at an excitation wavelength of 500 nm and an emission wavelength of 536 nm. The generation of free radicals was then measured in the absence (control) and presence of lipoic acid at various concentrations (100 and 500 μmol/l).

For O=C(O)CCCCC1CCSS1 (centres unmarked) [lipoic acid, 5-(1,2-dithiolan-3-yl)valeric acid], the “DPH anisotropy (membrane fluidity)” value (whole brain membranes) was “reduce the anisotropy in membranes from old mice” and the “generation of free radicals (increase in DHR 123 fluorescence)” value (brain cells) was “counteracts the generation of free radicals”.
